One data set addresses Human immunodeficiency virus type 1 integrase (Human immunodeficiency virus 1, UniProt Q7ZJM1). As to the kind of experiment: Allosteric inhibition of HIV-1 integrase by ELISA based IN-DNA assembly/Strand transfer assay.
Conditions: not given
(In an ELISA, binding on a coated surface is turned into a signal by an enzyme label.)
Sequence of Human immunodeficiency virus type 1 integrase (Q7ZJM1 whole entry): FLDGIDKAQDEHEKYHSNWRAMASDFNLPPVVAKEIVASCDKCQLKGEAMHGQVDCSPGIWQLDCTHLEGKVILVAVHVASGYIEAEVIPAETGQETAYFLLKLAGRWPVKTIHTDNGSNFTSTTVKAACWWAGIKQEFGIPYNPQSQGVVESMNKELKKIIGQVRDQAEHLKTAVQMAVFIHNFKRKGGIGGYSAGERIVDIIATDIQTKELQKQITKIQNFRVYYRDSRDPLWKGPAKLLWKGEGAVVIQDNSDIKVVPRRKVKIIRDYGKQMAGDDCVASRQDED
As a reminder, the IC50 is the concentration that inhibits the measured activity by half. Low readings indicate inhibition by little substance, high ones a need for much substance. In the case of `Cc1ccc(-c2c([C@H](OC(C)(C)C)C(=O)O)c(C)nc3ccccc23)cc1C`, the IC50 turned out to be 0.012 µM.
The same measure, in the same setting: as for `Cc1ccc2c(c1C(OC(C)(C)C)C(=O)O)[C@]1(CC[C@H](C)CC1)CC2=O` (some centres undefined), the figure is 0.49 µM; as for `Cc1cc(NC(=O)CC(C)C)c2c(c1C(OC(C)(C)C)C(=O)O)[C@]1(CC2)CC[C@@H](C)CC1` (some centres undefined), 0.0022 µM.
For the compound `Cc1cc(C(=O)NCC(C)C)c2c(c1C(OC(C)(C)C)C(=O)O)[C@]1(CC2)CC[C@@H](C)CC1` (some centres undefined), the half-inhibitory concentration (IC50) worked out at 0.0057 µM. Against the preceding compound, the IC50 is about 2.6-fold higher.
`COC1C[C@]2(CC[C@@H](C)CC2)c2c1ccc(C)c2C(OC(C)(C)C)C(=O)O` (some centres undefined) had an IC50 of 0.053 µM.
Take `Cc1cc(C(=O)NC(C)C)c2c(c1C(OC(C)(C)C)C(=O)O)[C@]1(CC2)CC[C@@H](C)CC1` (some centres undefined): the IC50 worked out at 0.02 µM.
The same measure, in the same setting: as for `Cc1ccc2c(c1C(OC(C)(C)C)C(=O)O)[C@]1(CC[C@H](C)CC1)CC2O` (some centres undefined), the figure is 0.43 µM; as for `CNC(=O)c1cc(C)c(C(OC(C)(C)C)C(=O)O)c2c1CC[C@]21CC[C@@H](C)CC1` (some centres undefined), 0.16 µM.

The next data set deals with Human immunodeficiency virus 1. As to the kind of experiment: Antiviral activity against wild type HIV-1 NL4-3 infected in human MT4 cells assessed as reduction in viral replication. It counts as functional, organism-based. As to conditions: Human immunodeficiency virus 1, NL4-3, MT4.
A word on the EC50: it is the midpoint of the concentration-response curve. As to `Cc1ccc2c(c1C(OC(C)(C)C)C(=O)O)[C@]1(CC[C@H](C)CC1)CC2=O` (some centres undefined), the EC50 was 3.2 µM.
On the same count and under the same terms, for `Cc1cc(NC(=O)CC(C)C)c2c(c1C(OC(C)(C)C)C(=O)O)[C@]1(CC2)CC[C@@H](C)CC1` (some centres undefined) the value was 0.03 µM; for `Cc1cc(C(=O)NCC(C)C)c2c(c1C(OC(C)(C)C)C(=O)O)[C@]1(CC2)CC[C@@H](C)CC1` (some centres undefined), 0.033 µM; for `COC1C[C@]2(CC[C@@H](C)CC2)c2c1ccc(C)c2C(OC(C)(C)C)C(=O)O` (some centres undefined), 2.3 µM.
On the same count and under the same terms, for `Cc1cc(C(=O)NC(C)C)c2c(c1C(OC(C)(C)C)C(=O)O)[C@]1(CC2)CC[C@@H](C)CC1` (some centres undefined) the value was 0.11 µM; for `Cc1ccc2c(c1C(OC(C)(C)C)C(=O)O)[C@]1(CC[C@H](C)CC1)CC2O` (some centres undefined), 15 µM; for `CNC(=O)c1cc(C)c(C(OC(C)(C)C)C(=O)O)c2c1CC[C@]21CC[C@@H](C)CC1` (some centres undefined), 0.56 µM.

A further data set relates to Human immunodeficiency virus 1. In words: Antiviral activity against HIV-1 T125A infected in human MT4 cells assessed as reduction in viral replication. It counts as functional, organism-based. The following applies: Human immunodeficiency virus 1, T125A.
As to `Cc1cc(NC(=O)CC(C)C)c2c(c1C(OC(C)(C)C)C(=O)O)[C@]1(CC2)CC[C@@H](C)CC1` (some centres undefined), the 50% effective concentration (EC50) was determined as 0.94 µM.
Regarding `Cc1cc(C(=O)NCC(C)C)c2c(c1C(OC(C)(C)C)C(=O)O)[C@]1(CC2)CC[C@@H](C)CC1` (some centres undefined), the EC50 worked out at 3.3 µM.
Same read-out and setting: as for `Cc1cc(C(=O)NC(C)C)c2c(c1C(OC(C)(C)C)C(=O)O)[C@]1(CC2)CC[C@@H](C)CC1` (some centres undefined), the figure is 2.7 µM; as for `CNC(=O)c1cc(C)c(C(OC(C)(C)C)C(=O)O)c2c1CC[C@]21CC[C@@H](C)CC1` (some centres undefined), 9.9 µM.

Test system in a further data set: not listed separately
In words: Metabolic stability in human liver microsome. Further: time not given here. It counts as ADME. As to conditions: microsomes.
In turn, `Cc1cc(NC(=O)CC(C)C)c2c(c1C(OC(C)(C)C)C(=O)O)[C@]1(CC2)CC[C@@H](C)CC1` (some centres undefined) had a Stability of 72%.
`Cc1cc(C(=O)NC(C)C)c2c(c1C(OC(C)(C)C)C(=O)O)[C@]1(CC2)CC[C@@H](C)CC1` (some centres undefined): the Stability is recorded as 99%.
In turn, `CNC(=O)c1cc(C)c(C(OC(C)(C)C)C(=O)O)c2c1CC[C@]21CC[C@@H](C)CC1` (some centres undefined) gave a Stability of 100%.

Test system in another data set: not listed separately
As to the kind of experiment: Metabolic stability in rat liver microsome. Further: time not given here. It counts as ADME. As to conditions: microsomes. Background: Microsomes from liver hold many membrane-bound enzymes, among them those of drug oxidation.
With `Cc1cc(NC(=O)CC(C)C)c2c(c1C(OC(C)(C)C)C(=O)O)[C@]1(CC2)CC[C@@H](C)CC1` (some centres undefined), the Stability is given as 97%.
Consider `Cc1cc(C(=O)NC(C)C)c2c(c1C(OC(C)(C)C)C(=O)O)[C@]1(CC2)CC[C@@H](C)CC1` (some centres undefined), for which the Stability is listed as 96%.
For `CNC(=O)c1cc(C)c(C(OC(C)(C)C)C(=O)O)c2c1CC[C@]21CC[C@@H](C)CC1` (some centres undefined), the Stability was determined as 98%.

Test system in the next data set: not listed separately
As to the kind of experiment: Permeability of the compound in human Caco-2 cells. It counts as ADME, cell-based. As to conditions: read-out: permeability.
With `Cc1cc(NC(=O)CC(C)C)c2c(c1C(OC(C)(C)C)C(=O)O)[C@]1(CC2)CC[C@@H](C)CC1` (some centres undefined), the Papp was 29 ×10⁻⁶ cm/s.
Regarding `Cc1cc(C(=O)NCC(C)C)c2c(c1C(OC(C)(C)C)C(=O)O)[C@]1(CC2)CC[C@@H](C)CC1` (some centres undefined), the Papp was found to be 15 ×10⁻⁶ cm/s.
As to `Cc1cc(C(=O)NC(C)C)c2c(c1C(OC(C)(C)C)C(=O)O)[C@]1(CC2)CC[C@@H](C)CC1` (some centres undefined), the Papp worked out at 13 ×10⁻⁶ cm/s.
On to `CNC(=O)c1cc(C)c(C(OC(C)(C)C)C(=O)O)c2c1CC[C@]21CC[C@@H](C)CC1` (some centres undefined), for which the Papp stood at 8 ×10⁻⁶ cm/s.

Source of the values: ChEMBL document CHEMBL5584251, “Design and synthesis of novel and potent allosteric HIV-1 integrase inhibitors with a spirocyclic moiety” (Bioorg Med Chem Lett, 2024).
